Numbering of substitutions follows the chain as printed. Like-named read-outs stand apart in the source and are kept apart here.
Assays:
[1] = tested on: U87MG pLVX-IDH2 R140Q-neo cells; assay: U87MG pLVX-IDH2 R140Q-neo cell based assay, 2-HG in media by LC-MS at 48 hours
Outline: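 2-HG secreted into the medium was measured by LC-MS after 48 h of compound treatment (0.2% DMSO final) of U87MG pLVX-IDH2 R140Q-neo cells in DMEM/10% FBS. The same wells were assayed at 72 h by CellTiter-Glo luminescence for effects on growth.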

IDH2 R172K = target: T1, IDH2 R172K (Homo sapiens, UniProt P48735, R172K); assay: IDH2 R172K enzymatic assay (NADPH cofactor depletion, diaphorase/resazurin readout); assay type: biochemical; conditions: read-out: Enz R172K
T1 sequence (P48735 40-452 R172K): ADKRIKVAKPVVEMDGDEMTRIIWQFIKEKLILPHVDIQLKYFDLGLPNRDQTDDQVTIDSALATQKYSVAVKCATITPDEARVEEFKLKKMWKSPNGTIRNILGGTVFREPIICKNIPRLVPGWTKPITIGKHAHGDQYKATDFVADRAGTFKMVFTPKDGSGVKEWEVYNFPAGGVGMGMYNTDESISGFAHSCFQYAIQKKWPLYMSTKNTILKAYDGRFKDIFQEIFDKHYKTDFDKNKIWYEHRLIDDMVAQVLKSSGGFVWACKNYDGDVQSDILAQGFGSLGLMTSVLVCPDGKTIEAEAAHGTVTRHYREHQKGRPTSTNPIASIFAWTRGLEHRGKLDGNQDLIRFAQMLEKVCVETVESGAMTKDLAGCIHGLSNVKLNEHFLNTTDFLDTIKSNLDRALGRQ
Method: Compounds are assayed for IDH2 R172K inhibitory activity through a cofactor depletion assay. […] The reaction is terminated by the addition of a second enzyme, diaphorase, and a corresponding substrate, resazurin. Diaphorase reduces resazurin to the highly fluorescent resorufin with the concomitant oxidation of NADPH to NADP, both halting the IDH2 reaction by depleting the available cofactor pool and facilitating quantitation of the amount of cofactor remaining after a specific time period through quantitative production of an easily detected fluorophore.
The test compound is then incubated for one hour at room temperature with the enzyme; before starting the IDH2 reaction with the addition of 10 μl of substrate mix containing 50 μM NADPH and 6.3 mM α-KG in the buffer described above. After a further one hour of incubation at room temperature, the reaction is halted and the remaining NADPH measured through conversion of resazurin to resorufin by the addition of 25 μl Stop Mix (36 μg/ml diaphorase enzyme and 60 μM resazurin; in buffer).

IDH2 R140Q = target: T2, IDH2 R140Q (Homo sapiens, UniProt P48735, R140Q); assay: IDH2 R140Q enzymatic assay (cofactor depletion, similar format); assay type: biochemical; conditions: read-out: Enz R140Q
T2 sequence (P48735 40-452 R140Q): T1 sequence (P48735 40-452 R172K) with R101Q, K133R

Structure (SMILES): CC(C)Nc1nc(Nc2ccccc2)nc(-c2ccccc2)n1 [Compound 100]
- IC50 ([1]; Homo sapiens, U-87 MG): < 0.1 µM
- IC50 (IDH2 R172K): < 0.1 µM
- IC50 (IDH2 R140Q): < 0.1 µM

Structure (SMILES): CC(C)Nc1nc(Cc2ccccc2)nc(Nc2ccccc2)n1 [Compound 103]
- IC50 ([1]; Homo sapiens, U-87 MG): 1 to 10 µM
- IC50 (IDH2 R172K): 1 to 10 µM
- IC50 (IDH2 R140Q): 0.1 to 1 µM

Structure (SMILES): COc1ccc(-c2nc(Nc3ccccc3)nc(NC(C)C)n2)cc1 [Compound 116]
- IC50 (IDH2 R172K): 1 to 10 µM
- IC50 (IDH2 R140Q): 0.1 to 1 µM

Structure (SMILES): Cc1cccc(C)c1-c1nc(Nc2ccccc2)nc(NC(C)C)n1 [Compound 117]
- IC50 (IDH2 R172K): 1 to 10 µM
- IC50 (IDH2 R140Q): 0.1 to 1 µM

Structure (SMILES): CC(C)Nc1nc(Nc2ccc(O)cc2)nc(-c2ccccc2)n1 [Compound 133]
- IC50 (IDH2 R172K): > 10 µM
- IC50 (IDH2 R140Q): 0.1 to 1 µM

Structure (SMILES): CC(C)Nc1nc(NC2CCOCC2)nc(-c2ccccc2)n1 [Compound 137]
- IC50 (IDH2 R172K): 1 to 10 µM
- IC50 (IDH2 R140Q): 0.1 to 1 µM

Structure (SMILES): CC(C)Nc1nc(Nc2ccccc2C#N)nc(-c2ccccc2)n1 [Compound 165]
- IC50 (IDH2 R172K): 1 to 10 µM
- IC50 (IDH2 R140Q): 0.1 to 1 µM

Structure (SMILES): c1ccc(-c2nc(Nc3ccncc3)nc(NC3CC3)n2)cc1 [Compound 217, N^2-cyclopropyl-6-phenyl-N^4-(pyridin-4-yl)-1,3,5-triazine-2,4-diamine]
- IC50 (IDH2 R172K): 1 to 10 µM
- IC50 (IDH2 R140Q): < 0.1 µM

Structure (SMILES): O=C(Nc1nc(Nc2ccccc2)nc(-c2ccccc2)n1)C1CCCO1 (centres unmarked) [Compound 243, N-(4-phenyl-6-(phenylamino)-1,3,5-triazin-2-yl)tetrahydrofuran-2-carboxamide]
- IC50 (IDH2 R172K): 1 to 10 µM
- IC50 (IDH2 R140Q): 0.1 to 1 µM

Structure (SMILES): COC(C)(C)CNc1nc(Nc2ccncc2)nc(-c2ccccc2)n1 [Compound 252, N^2-(2-methoxy-2-methylpropyl)-6-phenyl-N^4-(pyridin-4-yl)-1,3,5-triazine-2,4-diamine]
- IC50 (IDH2 R172K): 1 to 10 µM
- IC50 (IDH2 R140Q): 0.1 to 1 µM

Structure (SMILES): CC(C)Nc1nc(Nc2cccc(S(C)(=O)=O)c2)nc(-c2cccc(C3CC3)n2)n1 [Compound 397, 6-(6-cyclopropylpyridin-2-yl)-N^2-isopropyl-N^4-(3-(methylsulfonyl)phenyl)-1,3,5-triazine-2,4-diamine]
- IC50 ([1]; Homo sapiens, U-87 MG): 0.1 to 1 µM
- IC50 (IDH2 R140Q): 0.1 to 1 µM

Structure (SMILES): CC(C)Nc1nc(Nc2cc(F)cc(F)c2)nc(-c2cccc(N)n2)n1 [Compound 398, 6-(6-aminopyridin-2-yl)-N^2-(3,5-difluorophenyl)-N^4-isopropyl-1,3,5-triazine-2,4-diamine]
- IC50 ([1]; Homo sapiens, U-87 MG): < 0.1 µM
- IC50 (IDH2 R140Q): < 0.1 µM

Structure (SMILES): CC(C)CNc1nc(Nc2cncc(F)c2)nc(-c2cccc(Cl)n2)n1 [Compound 399, 6-(6-chloropyridin-2-yl)-N^2-(5-fluoropyridin-3-yl)-N^4-isobutyl-1,3,5-triazine-2,4-diamine]
- IC50 ([1]; Homo sapiens, U-87 MG): < 0.1 µM
- IC50 (IDH2 R140Q): 0.1 to 1 µM

Structure (SMILES): CC(C)Nc1nc(Nc2cccc(S(=O)(=O)N3CCC3)c2)nc(-c2cccc(Cl)n2)n1 [Compound 400, N^2-(3-(azetidin-1-ylsulfonyl)phenyl)-6-(6-chloropyridin-2-yl)-N^4-isopropyl-1,3,5-triazine-2,4-diamine]
- IC50 ([1]; Homo sapiens, U-87 MG): < 0.1 µM
- IC50 (IDH2 R140Q): 0.1 to 1 µM

Structure (SMILES): CC(C)Nc1nc(Nc2cncc(C#N)c2)nc(-c2cccc(C(F)(F)F)n2)n1 [Compound 401, 5-(4-(isopropylamino)-6-(6-(trifluoromethyl)pyridin-2-yl)-1,3,5-triazin-2-ylamino)nicotinonitrile]
- IC50 ([1]; Homo sapiens, U-87 MG): < 0.1 µM
- IC50 (IDH2 R140Q): 0.1 to 1 µM

Structure (SMILES): Fc1cc(Nc2nc(NCC3CCCO3)nc(-c3cccc(C(F)(F)F)n3)n2)ccn1 (centres unmarked) [Compound 402, N^2-(2-fluoropyridin-4-yl)-N^4-((tetrahydrofuran-2-yl)methyl)-6-(6-(trifluoromethyl)pyridin-2-yl)-1,3,5-triazine-2,4-diamine]
- IC50 ([1]; Homo sapiens, U-87 MG): < 0.1 µM
- IC50 (IDH2 R140Q): 0.1 to 1 µM

Structure (SMILES): N#Cc1cc(Nc2nc(NCC3CCCO3)nc(-c3cccc(C(F)(F)F)n3)n2)ccn1 (centres unmarked) [Compound 403, 4-(4-((tetrahydrofuran-2-yl)methylamino)-6-(6-(trifluoromethyl)pyridin-2-yl)-1,3,5-triazin-2-ylamino)picolinonitrile]
- IC50 ([1]; Homo sapiens, U-87 MG): < 0.1 µM
- IC50 (IDH2 R140Q): 0.1 to 1 µM

Structure (SMILES): CC(C)Nc1nc(Nc2ccnc(C#N)c2)nc(-c2cccc(C(F)(F)F)n2)n1 [Compound 404, 4-(4-(isopropylamino)-6-(6-(trifluoromethyl)pyridin-2-yl)-1,3,5-triazin-2-ylamino)picolinonitrile]
- IC50 ([1]; Homo sapiens, U-87 MG): < 0.1 µM
- IC50 (IDH2 R140Q): 0.1 to 1 µM

Structure (SMILES): CC(C)(O)CNc1nc(Nc2cncc(C(F)(F)F)c2)nc(-c2cccc(C(F)(F)F)n2)n1 [Compound 406, 2-methyl-1-(4-(6-(trifluoromethyl)pyridin-2-yl)-6-(5-(trifluoromethyl)pyridin-3-ylamino)-1,3,5-triazin-2-ylamino)propan-2-ol]
- IC50 ([1]; Homo sapiens, U-87 MG): < 0.1 µM
- IC50 (IDH2 R140Q): 0.1 to 1 µM

Structure (SMILES): CC(C)(O)CNc1nc(Nc2cncc(F)c2)nc(-c2cccc(C(F)(F)F)n2)n1 [Compound 407, 1-(4-(5-fluoropyridin-3-ylamino)-6-(6-(trifluoromethyl)pyridin-2-yl)-1,3,5-triazin-2-ylamino)-2-methylpropan-2-ol]
- IC50 ([1]; Homo sapiens, U-87 MG): 0.1 to 1 µM
- IC50 (IDH2 R140Q): 0.1 to 1 µM

Structure (SMILES): Fc1ccc(Nc2nc(NC3COC3)nc(-c3cccc(Cl)n3)n2)cn1 [Compound 410, 6-(6-chloropyridin-2-yl)-N^2-(6-fluoropyridin-3-yl)-N^4-(oxetan-3-yl)-1,3,5-triazine-2,4-diamine]
- IC50 ([1]; Homo sapiens, U-87 MG): 0.1 to 1 µM
- IC50 (IDH2 R140Q): > 10 µM

Structure (SMILES): Fc1cncc(Nc2nc(NC3C4COCC43)nc(-c3cccc(C(F)(F)F)n3)n2)c1 (centres unmarked) [Compound 411, N^2-(3-oxabicyclo[3.1.0]hexan-6-yl)-N^4-(5-fluoropyridin-3-yl)-6-(6-(trifluoromethyl)pyridin-2-yl)-1,3,5-triazine-2,4-diamine]
- IC50 ([1]; Homo sapiens, U-87 MG): < 0.1 µM
- IC50 (IDH2 R140Q): 1 to 10 µM

Structure (SMILES): O=C(Nc1nc(Nc2ccccc2)nc(-c2ccccc2)n1)c1ccc[nH]1 [Compound 414, 1H-Pyrrole-2-carboxylic acid (4-phenyl-6-phenylamino-[1,3,5]triazin-2-yl)-amide]
- IC50 ([1]; Homo sapiens, U-87 MG): 0.1 to 1 µM
- IC50 (IDH2 R140Q): 0.1 to 1 µM

Structure (SMILES): COC(=O)c1cc(Nc2nc(NC(C)C)nc(-c3ccccc3)n2)ccn1 [Compound 450, methyl 4-((4-(isopropylamino)-6-phenyl-1,3,5-triazin-2-yl)amino)picolinate]
- IC50 [1]: < 0.1 µM
- IC50 (IDH2 R140Q): 0.1 to 1 µM

Structure (SMILES): COc1cc(Cl)cc(-c2nc(Nc3cc(F)cc(F)c3)nc(NC(C)C)n2)n1 [Compound 486, 6-(4-chloro-6-methoxypyridin-2-yl)-N^2-(3,5-difluorophenyl)-N^4-isopropyl-1,3,5-triazine-2,4-diamine]
- IC50 ([1]; Homo sapiens, U-87 MG): 0.1 to 1 µM
- IC50 (IDH2 R172K): 0.1 to 1 µM

Structure (SMILES): CC(C)Nc1nc(Nc2ccnc(C(F)(F)F)c2)nc(-c2cc(Cl)cc(C(F)(F)F)c2)n1 [Compound 644, 6-(3-Chloro-5-trifluoromethyl-phenyl)-N-isopropyl-N′-(2-trifluoromethyl-pyridin-4-yl)-[1,3,5]triazine-2,4-diamine]
- IC50 (IDH2 R172K): 1 to 10 µM
- IC50 (IDH2 R140Q): 0.1 to 1 µM

Structure (SMILES): CC(C)Nc1nc(Nc2cccc(S(C)(=O)=O)c2)nc(-c2cc(F)cc(C(F)(F)F)c2)n1 [Compound 660, 6-(3-fluoro-5-(trifluoromethyl)phenyl)-N2-isopropyl-N4-(3-(methylsulfonyl)phenyl)-1,3,5-triazine-2,4-diamine]
- IC50 ([1]; Homo sapiens, U-87 MG): 1 to 10 µM
- IC50 (IDH2 R140Q): 0.1 to 1 µM

Structure (SMILES): COc1cc(F)cc(-c2nc(Nc3ccnc(C(F)(F)F)c3)nc(NC(C)C)n2)c1 [Compound 662, 6-(3-fluoro-5-methoxyphenyl)-N2-isopropyl-N4-(2-(trifluoromethyl)pyridin-4-yl)-1,3,5-triazine-2,4-diamine]
- IC50 ([1]; Homo sapiens, U-87 MG): 0.1 to 1 µM
- IC50 (IDH2 R172K): 1 to 10 µM

Structure (SMILES): CC(C)Nc1nc(Nc2ccnc(C(F)(F)F)c2)nc(-c2cccc(C(C)O)c2)n1 (centres unmarked) [Compound 663, 1-(3-(4-(isopropylamino)-6-((2-(trifluoromethyl)pyridin-4-yl)amino)-1,3,5-triazin-2-yl)phenyl)ethanol]
- IC50 ([1]; Homo sapiens, U-87 MG): < 0.1 µM
- IC50 (IDH2 R172K): < 0.1 µM

Structure (SMILES): CC(C)Nc1nc(Nc2ccnc(C(F)(F)F)c2)nc(-c2cc(O)cc(CO)c2)n1 [Compound 665, 3-(hydroxymethyl)-5-(4-(isopropylamino)-6-((2-(trifluoromethyl)pyridin-4-yl)amino)-1,3,5-triazin-2-yl)phenol]
- IC50 ([1]; Homo sapiens, U-87 MG): < 0.1 µM
- IC50 (IDH2 R172K): < 0.1 µM

From patent US9512107B2, “Therapeutically active compositions and their methods of use” (Agios Pharmaceuticals, Inc., priority 2012, dated 2016)
